The values that follow come from BindingDB's records for doi:10.1016/j.bmcl.2003.11.081 (Cubist Pharmaceuticals, 2004).

The target in experiment [1] is Phenylalanine--tRNA ligase (Enterococcus faecalis). The experiment is described as follows: Inhibitory activity against phenylalanyl-tRNA synthetase from Enterococcus faecalis.
Experiment [2] has as its target T1, Phenylalanine--tRNA ligase, mitochondrial (Homo sapiens, UniProt O95363).
T1 sequence (O95363 whole entry): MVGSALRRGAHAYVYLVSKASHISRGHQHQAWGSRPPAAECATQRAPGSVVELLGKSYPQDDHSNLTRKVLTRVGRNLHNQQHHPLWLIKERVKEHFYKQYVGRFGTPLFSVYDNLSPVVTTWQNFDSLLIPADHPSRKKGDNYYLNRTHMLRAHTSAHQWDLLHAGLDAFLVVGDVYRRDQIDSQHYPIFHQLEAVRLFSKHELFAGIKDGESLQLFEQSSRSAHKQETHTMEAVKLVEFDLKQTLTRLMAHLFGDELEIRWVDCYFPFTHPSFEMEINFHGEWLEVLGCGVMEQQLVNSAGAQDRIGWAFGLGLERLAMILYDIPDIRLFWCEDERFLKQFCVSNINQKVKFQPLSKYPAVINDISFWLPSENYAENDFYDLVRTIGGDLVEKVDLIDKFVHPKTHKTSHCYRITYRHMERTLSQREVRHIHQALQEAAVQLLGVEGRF
The experiment is described as follows: (§1) Inhibitory activity against human phenylalanyl-tRNA synthetase was determined.

For experiment [3], the target named is Phenylalanine--tRNA ligase (Staphylococcus aureus). The experiment is described as follows: Inhibitory activity against phenylalanyl-tRNA synthetase from Staphylococcus aureus.
The target in experiment [4] is Phenylalanine--tRNA ligase (Enterococcus faecalis). The experiment is described as follows: Inhibitory activity against phenylalanyl-tRNA synthetase from Enterococcus faecalis. The source holds these as a separate data set.
Experiment [5] has as its target T1, Phenylalanine--tRNA ligase, mitochondrial. The experiment is described as follows: ChEBML_154873. The protocol: as §1

Regarding `Oc1c2c(c(O)n1-c1ccc(Cl)c(Cl)c1)C1(Cc3ccccc3C1)NC2c1ccccc1` (stereo unspecified), the IC50 in experiment [1], in experiment [2], in experiment [3], in experiment [4] and in experiment [5] was over 100 µM each time.

For the compound `O=C1c2ccccc2C(=O)C12OC(c1ccccc1)c1c2c(O)n(-c2ccc(Cl)c(C(F)(F)F)c2)c1O` [5-(4-chloro-3-trifluoromethylphenyl)-3-phenyl-(3R,3aS,6aR)-spiro[perhydrofuro[3,4-c]pyrrole-1,2'-(2',3'-dihydro-1'H-indene)]-1',3',4,6-tetraone], the IC50 – broadly, the concentration that inhibits the measured activity by half – in experiment [3] is 45 µM; in experiment [4], 32 µM.

`O=C1c2ccccc2C(=O)C12OC(c1ccccc1)c1c2c(O)n(-c2ccc([N+](=O)[O-])cc2)c1O` [5-(4-nitrophenyl)-3-phenyl-(3R,3aS,6aR)-spiro[perhydrofuro[3,4-c]pyrrole-1,2'-(2',3'-dihydro-1'H-indene)]-1',3',4,6-tetraone]: the IC50 in experiment [3], in experiment [4] and in experiment [5] was over 100 µM in each case.

In the case of `Cc1ccc(C2OC3(C(=O)c4ccccc4C3=O)c3c2c(O)n(-c2ccc4c(c2)OCO4)c3O)cc1` [5-benzo[d][1,3]dioxol-5-yl-3-(4-methylphenyl)-(3R,3aS,6aR)-spiro[perhydrofuro[3,4-c]pyrrole-1,2'-(2',3'-dihydro-1'H-indene)]-1',3',4,6-tetraone], the IC50 in experiment [1], in experiment [4] and in experiment [5] was over 100 µM throughout.

For the compound `COC(=O)C1NC(c2ccccc2)c2c1c(O)n(-c1ccc(Cl)c(Cl)c1)c2O` [methyl 5-(3,4-dichlorophenyl)-4,6-dioxo-3-phenyl-(3R,3aS,6aR)-perhydropyrrolo[3,4-c]pyrrole-1-carboxylate], the half-inhibitory concentration (IC50) in experiment [1], in experiment [4] and in experiment [5] was over 100 µM in each case.
